Values after ≈ are worked out from the molar mass of the structure shown.
How the values were obtained:
Ser. marcescens A-20019 = test: MIC, tube dilution, Serratia marcescens A20019; type: cell-based; settings: Serratia marcescens, A20019, Serratia marcescens A20019; overnight 37° C.; read-out: Minimum Inhibitory Concentration (M.I.C.)
Text: (§1) Representative compounds of the present invention were subjected to in vitro antibiotic screening against a variety of microorganisms.

[1] = tested on: Staph. aureus A-9537 and 50% serum; test: MIC, tube dilution, Staph. aureus A9537 + 50% serum; type: cell-based, Staphylococcus aureus; settings: Staphylococcus aureus, overnight 37° C., read-out: Minimum Inhibitory Concentration (M.I.C.)
Text: as §1

Proteus rettgeri A21203 = test: MIC, tube dilution, Proteus rettgeri A21203; type: cell-based; settings: Providencia rettgeri; Proteus rettgeri A21203; overnight 37° C.; read-out: Minimum Inhibitory Concentration (M.I.C.)
Text: as §1

[2] = tested on: Staph. aureus (Meth-Res) A-15097; test: MIC, tube dilution, Staphylococcus aureus A15097 (Meth-Res); type: cell-based; settings: Staphylococcus aureus, read-out: Minimum Inhibitory Concentration (M.I.C.), Staph. aureus A15097 (Meth-Res); overnight 37° C.
Text: as §1

[3] = tested on: Klebsiella species A20468; test: MIC, tube dilution, Klebsiella species A20468; type: cell-based; settings: Klebsiella species (K. pneumoniae) A20468; overnight 37° C.; read-out: Minimum Inhibitory Concentration (M.I.C.)
Text: as §1

Ps. aeruginosa A-21213 = test: MIC, tube dilution, Pseudomonas aeruginosa A21213; type: cell-based; settings: Pseudomonas aeruginosa A21213; overnight 37° C.; read-out: Minimum Inhibitory Concentration (M.I.C.)
Text: as §1

Str. faecalis A-20688 = test: MIC, tube dilution, Streptococcus faecalis A20688; type: cell-based; settings: Enterococcus faecalis, A20688, Str. faecalis A20688; overnight 37° C.; read-out: Minimum Inhibitory Concentration (M.I.C.)
Text: as §1

Str. pneumoniae A-9585 = test: MIC, tube dilution, Streptococcus pneumoniae A9585; type: cell-based; settings: Streptococcus pneumoniae, A9585, Str. pneumoniae A9585; overnight 37° C., Nutrient Broth; read-out: Minimum Inhibitory Concentration (M.I.C.)
Text: as §1

Pr. mirabilis A-9900 = test: MIC, tube dilution, Proteus mirabilis A9900; type: cell-based; settings: Proteus mirabilis, A9900, Proteus mirabilis A9900; overnight 37° C.; read-out: Minimum Inhibitory Concentration (M.I.C.)
Text: as §1

E. coli A-15119 = test: MIC, tube dilution, Escherichia coli A15119; type: cell-based; settings: Escherichia coli, A15119, E. coli A15119; overnight 37° C.; read-out: Minimum Inhibitory Concentration (M.I.C.)
Text: as §1

K. pneumoniae A-15130 = test: MIC, tube dilution, Klebsiella pneumoniae A15130; type: cell-based; settings: Klebsiella pneumoniae, A15130, K. pneumoniae A15130; overnight 37° C.; read-out: Minimum Inhibitory Concentration (M.I.C.)
Text: as §1

Pr. morganii A-15153 = test: MIC, tube dilution, Proteus morganii A15153; type: cell-based; settings: Morganella morganii, A15153, Proteus morganii A15153; overnight 37° C.; read-out: Minimum Inhibitory Concentration (M.I.C.)
Text: as §1

Ent. cloacae A-9656 = test: MIC, tube dilution, Enterobacter cloacae A9656; type: cell-based; settings: Enterobacter cloacae A9656; overnight 37° C.; read-out: Minimum Inhibitory Concentration (M.I.C.)
Text: as §1

Str. pyogenes A-9604 = test: MIC, tube dilution, Streptococcus pyogenes A9604; type: cell-based; settings: Streptococcus pyogenes, A9604, Str. pyogenes A9604; overnight 37° C., Nutrient Broth; read-out: Minimum Inhibitory Concentration (M.I.C.)
Text: as §1

[4] = tested on: Staph. aureus (Pen-Res) A-9606; test: MIC, tube dilution, Staphylococcus aureus A9606 (Pen-Res); type: cell-based; settings: Staphylococcus aureus, read-out: Minimum Inhibitory Concentration (M.I.C.), Staph. aureus A9606 (Pen-Res); overnight 37° C.
Text: as §1

Ps. aeruginosa A-9843A = test: MIC, tube dilution, Pseudomonas aeruginosa A9843A; type: cell-based; settings: Pseudomonas aeruginosa, A9843A, read-out: Minimum Inhibitory Concentration (M.I.C.), Pseudomonas aeruginosa A9843A; overnight 37° C.
Text: as §1

Proteus vulgaris A9555 = test: MIC, tube dilution, Proteus vulgaris (mirabilis) A9555; type: cell-based; settings: overnight 37° C., read-out: Minimum Inhibitory Concentration (M.I.C.)
Text: as §1

E. coli A-20341-1 = test: MIC, tube dilution, Escherichia coli A20341-1; type: cell-based; settings: Escherichia coli, A203411; E. coli A20341-1; overnight 37° C.; read-out: Minimum Inhibitory Concentration (M.I.C.)
Text: as §1

Staph. aureus A-9537 = test: MIC, tube dilution, Staphylococcus aureus A9537; type: cell-based; settings: Staphylococcus aureus, A9537, Staph. aureus A9537; overnight 37° C., Nutrient Broth; read-out: Minimum Inhibitory Concentration (M.I.C.)
Text: as §1

Ent. cloacae A-9659 = test: MIC, tube dilution, Enterobacter cloacae A9659; type: cell-based; settings: Enterobacter cloacae, A9659, Enterobacter cloacae A9659; overnight 37° C.; read-out: Minimum Inhibitory Concentration (M.I.C.)
Text: as §1

Row | SMILES | MIC (Ser. marcescens A-20019) [µg/mL] | MIC [1] [µg/mL] | MIC (Proteus rettgeri A21203) [µg/mL] | MIC [2] [µg/mL] | MIC [3] [µg/mL] | MIC (Ps. aeruginosa A-21213) [µg/mL] | MIC (Str. faecalis A-20688) [µg/mL] | MIC (Str. pneumoniae A-9585) [µg/mL] | MIC (Pr. mirabilis A-9900) [µg/mL] | MIC (E. coli A-15119) [µg/mL] | MIC (K. pneumoniae A-15130) [µg/mL] | MIC (Pr. morganii A-15153) [µg/mL] | MIC (Ent. cloacae A-9656) [µg/mL] | MIC (Str. pyogenes A-9604) [µg/mL] | MIC [4] [µg/mL] | MIC (Ps. aeruginosa A-9843A) [µg/mL] | MIC (Proteus vulgaris A9555) [µg/mL] | MIC (E. coli A-20341-1) [µg/mL] | MIC (Staph. aureus A-9537) [µg/mL] | MIC (Ent. cloacae A-9659) [µg/mL]
1 | CC(C)OP(=O)(CCC1=C(C(=O)O)N2C(=O)CC2S1)OC(C)C (stereo not shown) [Preparation 54] | 125 (≈ 344 µM) | 32 | 125 (≈ 344 µM) | 63 (≈ 173 µM) | 63 (≈ 173 µM) | 125 (≈ 344 µM) | 63 (≈ 173 µM) | 63 (≈ 173 µM) | 125 (≈ 344 µM) | 63 (≈ 173 µM) | > 125 | 125 (≈ 344 µM) | 32 (≈ 88.1 µM) | 125 (≈ 344 µM) | > 125 | 125 (≈ 344 µM) | > 125 | 32 (≈ 88.1 µM) | 32 (≈ 88.1 µM) | 125 (≈ 344 µM)
2 | CSc1nnc(C2=C(C(=O)O)N3C(=O)CC3S2)o1 (stereo not shown) [Example 56, Sodium 3-(5-Methylthio-1,3,4-oxadiazol-2-yl)penem-3-carboxylate] | > 125 | > 63 | > 125 | > 125 | > 125 | 125 | > 125 | 125 | > 125 | > 125 | > 125 | > 125 | > 125 | 125 | > 125 | 125 | > 125 | > 125 | > 125 | > 125

Reference: patent US4272437A, “Antibacterial agents, and 4-thio azetidinone intermediates” (priority 1979, dated 1981)
